Activity, GI50 and inhibition data for 16 molecules are collected here from ChEMBL document CHEMBL4364246, “Synthesis and biological evaluation of 5-aminoethyl benzophenanthridone derivatives as DNA topoisomerase IB inhibitors” (Eur J Med Chem, 2019).

Active and inactive are the calls of the source. The rule behind the calls is not given here.

For test [1], the target named is T1, DNA topoisomerase 1 (Homo sapiens) (UniProt P11387).
T1 sequence (whole entry): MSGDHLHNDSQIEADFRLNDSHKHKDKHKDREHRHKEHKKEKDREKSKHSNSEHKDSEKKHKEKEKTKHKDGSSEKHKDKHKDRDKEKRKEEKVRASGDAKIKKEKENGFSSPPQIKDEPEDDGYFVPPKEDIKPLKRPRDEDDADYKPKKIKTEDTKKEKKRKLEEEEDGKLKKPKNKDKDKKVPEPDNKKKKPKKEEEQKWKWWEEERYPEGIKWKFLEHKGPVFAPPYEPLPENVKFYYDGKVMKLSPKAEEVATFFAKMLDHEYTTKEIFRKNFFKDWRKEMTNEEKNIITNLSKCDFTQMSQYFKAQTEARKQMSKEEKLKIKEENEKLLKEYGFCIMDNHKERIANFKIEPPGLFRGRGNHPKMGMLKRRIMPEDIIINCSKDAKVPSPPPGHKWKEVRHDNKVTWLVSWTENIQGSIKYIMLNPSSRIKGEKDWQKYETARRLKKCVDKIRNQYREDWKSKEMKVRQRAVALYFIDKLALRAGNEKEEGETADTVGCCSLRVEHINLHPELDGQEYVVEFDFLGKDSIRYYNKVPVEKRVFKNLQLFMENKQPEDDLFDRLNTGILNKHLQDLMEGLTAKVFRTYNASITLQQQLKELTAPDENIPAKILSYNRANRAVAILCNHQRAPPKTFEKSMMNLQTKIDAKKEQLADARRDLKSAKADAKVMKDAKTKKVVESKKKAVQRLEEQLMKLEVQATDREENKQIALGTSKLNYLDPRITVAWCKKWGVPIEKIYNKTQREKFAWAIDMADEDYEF
The experiment in a line: Inhibition of recombinant TOP1 (unknown origin) using 3'-[32P]-labeled 117 bp DNA oligonucleotide assessed as TOP1-mediated DNA cleavage by measuring induction and stabilization of cleavage sites 17, 35 and 79 at 1 uM incubated for 20 mins by PAGE analysis.

Test [2] concerns HCT-116. The test can be described thus: cells. The note with it: Homo sapiens, HCT-116, 72 h.
Test [3] has as its target T1, DNA topoisomerase 1 (Homo sapiens). The experiment in a line: Inhibition of recombinant TOP1 (unknown origin) using 3'-[32P]-labeled 117 bp DNA oligonucleotide assessed as […] TOP1-mediated DNA cleavage incubated for 20 mins by PAGE analysis relative to 1 uM CPT.
Test [4] concerns MCF7. The experiment in a line: cells. Particulars: Homo sapiens, MCF7, 72 h.
For test [5], the system named is DU-145. The test can be described thus: cells. Particulars: Homo sapiens, DU-145, 72 h.
Test [6] has as its system A549. The test can be described thus: cells. The note with it: Homo sapiens, A549, 72 h.
The target in test [7] is T1, DNA topoisomerase 1 (Homo sapiens). The test can be described thus: Inhibition of recombinant TOP1 (unknown origin) using 3'-[32P]-labeled 117 bp DNA oligonucleotide assessed as TOP1-mediated DNA cleavage by measuring induction and stabilization of cleavage sites 17, 35 and 79 incubated for 20 mins by PAGE analysis.
Test [8] has the same target. The test can be described thus: Inhibition of TOP1 in human HCT116 cells assessed as induction of DNA damage by measuring increase in gammaH2AX foci at 1 uM incubated for 3 hrs by DAPI staining based immunofluorescence microscopic method. It counts as cell-based.
The target is the same in test [9]. The experiment in a line: Inhibition of TOP1 in human HCT116 cells assessed as induction of cellular TOP1cc formation incubated for 1 hr by chemiluminescence based assay. Format: cell-based.
The target is the same in test [10]. The test can be described thus: Inhibition of TOP1 in human HCT116 cells assessed as induction of cellular TOP1cc formation at 25 uM incubated for 1 hr by chemiluminescence based assay. Format: cell-based.

As a reminder, the GI50 is the concentration at which growth is held to half of that of the control. A higher GI50 goes with lower sensitivity of the cells. Usually inhibition stands for the drop in the measured response relative to a control, in per cent.

In the case of `COc1cc2c3c(n(CCCNCCO)c(=O)c2cc1OC)-c1cc2c(cc1C3=O)OCO2`, the outcome in test [1] was Active.

Turning to `COc1cc2c(=O)n(CCN(C)S(=O)(=O)C(F)(F)F)c3c4cc5c(cc4ccc3c2cc1OC)OCO5`, the GI50 in [2] was determined as 86 µM; in test [4], 35 µM; in test [5] it was 65 µM; in [6], 42 µM. Besides, the inhibition in test [3] fell in the range of 0 to 50%.

Turning to `COc1cc2c(=O)n(CCNC(=O)C3CC3)c3c4cc5c(cc4ccc3c2cc1OC)OCO5`, the GI50 was found to be 5.3 µM in [2], 2.2 µM in [4], 7.8 µM in test [5] and 1.3 µM in test [6]. Besides, in test [3], the inhibition is 20 to 50%.

Take `COc1cc2c(=O)n(CCN(C)S(=O)(=O)N3CCOCC3)c3c4cc5c(cc4ccc3c2cc1OC)OCO5`: the GI50 in test [2] stood at 40 µM; in [4] it was 64 µM; in [5], 48 µM; in [6], 35 µM. For the same molecule, in test [3], the inhibition lay in the range of 20 to 50%.

For the molecule `COc1cc2c(=O)n(CCNS(=O)(=O)C3CC3)c3c4cc5c(cc4ccc3c2cc1OC)OCO5`, the GI50 in test [2] was determined as 5.2 µM; in [4] it was 3 µM; in test [5] it was 1.3 µM; in [6] it was 4.3 µM. The inhibition in test [3] was in the range of 50 to 75%. Further, in test [7], the Activity result is “Dose-dependent effect”.

As to `COc1cc2c(=O)n(CCN(C)S(=O)(=O)N3CCCC3)c3c4cc5c(cc4ccc3c2cc1OC)OCO5`, the GI50 in test [2] amounted to 2.5 µM; in test [4], 3.8 µM; in [5] it was 3.1 µM; in test [6] it was 5.3 µM. For the same molecule, the inhibition in [3] was 20 to 50%.

On to `COc1cc2c(=O)n(CCN(C)P(=O)(OC)OC)c3c4cc5c(cc4ccc3c2cc1OC)OCO5`, for which the GI50 came out at 9.2 µM in test [2], 10 µM in test [4], 5.3 µM in test [5] and 14 µM in test [6]. Also, the inhibition in test [3] lay within 50 to 75%. Besides, the Activity entry in test [7] was “Dose-dependent effect”.

With `COc1cc2c(=O)n(C)c3c4cc5c(cc4ccc3c2cc1OC)OCO5`, the GI50 in test [2] came out at 74 µM; in [4], 31 µM; in test [5], 64 µM; in test [6], 39 µM.

As for `COc1cc2c(=O)n(CCN(C)P3(=O)OCCO3)c3c4cc5c(cc4ccc3c2cc1OC)OCO5`, the inhibition in test [3] lay in the range of 50 to 75%. The Activity entry in [7] is “Dose-dependent effect”.

On to `COc1cc2c(=O)n(CCNP(=O)(OC)OC)c3c4cc5c(cc4ccc3c2cc1OC)OCO5`, for which the GI50 in test [2] came out at 51 µM; in test [4] it was 48 µM; in test [5], 39 µM; in test [6], 41 µM. In [3], the inhibition lay within 0 to 50%.

As to `COc1cc2c(=O)n(CCN(C)S(=O)(=O)N(C)C)c3c4cc5c(cc4ccc3c2cc1OC)OCO5`, the GI50 in test [2] came to 0.96 µM; in test [4], 1.5 µM; in test [5], 15 µM; in test [6], 7.9 µM. In [3], the inhibition fell in the range of 20 to 50%.

With `COc1cc2c(=O)n(CCN(C)S(=O)(=O)C3CC3)c3c4cc5c(cc4ccc3c2cc1OC)OCO5`, the GI50 is 7.9 µM in [2], 5.8 µM in test [4], 10 µM in test [5] and 15 µM in test [6]. Besides, the inhibition in [3] was in the range of 20 to 50%.

For the molecule `COc1cc2c(=O)n(CCNS(=O)(=O)N3CCOCC3)c3c4cc5c(cc4ccc3c2cc1OC)OCO5`, the 50% growth inhibitory concentration (GI50) in test [2] was 1.1 µM; in test [4], 0.89 µM; in test [5] it was 1.6 µM; in test [6], 2.9 µM. Besides, the inhibition in test [3] fell in the range of 50 to 75%. In addition, in [7], the Activity result is “Dose-dependent effect”.

Regarding `COc1cc2c(=O)n(CCNS(=O)(=O)N3CCCC3)c3c4cc5c(cc4ccc3c2cc1OC)OCO5`, the GI50 in [2] was found to be 34 µM; in [4] it was 38 µM; in test [5], 79 µM; in [6], 61 µM. Moreover, the inhibition in [3] lay within 0 to 50%.

Consider `CC[C@@]1(O)C(=O)OCc2c1cc1n(c2=O)Cc2cc3ccccc3nc2-1`, for which the outcome in test [8] and in test [10] was Active. Moreover, the Activity entry in test [9] is “Dose-dependent effect”. In test [1], the outcome was inactive.

For `COc1cc2c(=O)n(CCNS(=O)(=O)N(C)C)c3c4cc5c(cc4ccc3c2cc1OC)OCO5`, the GI50 in test [2] was determined as 30 µM; in test [4], 21 µM; in [5], 45 µM; in [6], 35 µM. For the same molecule, the inhibition in [3] is 20 to 50%.
